According to publication PMC10820135, “Pharmacokinetic, Tissue Distribution, Metabolite, and Toxicity Evaluation of the Matrine Derivative, (6aS, 10S, 11aR, 11bR, 11cS)-10-Methylaminododecahydro-3a, 7a-Diaza-benzo (de) Anthracene-8-thione” (Molecules, 2024):
“Also recorded” adds a separate entry of the source. Where two headings read alike, the source gives them in different places.

How the values were obtained:
[1] = test system: ICR mice; assay: Acute toxicity of MASM in mice via intravenous administration; type: in vivo
Procedure: (§1) All mice were administered MASM intravenously. The body weight of each mouse was measured on days 7 and 14. On the 14th day, all mice were euthanized, and the heart, liver, spleen, lung, and kidney were collected and weighed immediately. Serum was collected from the eyeballs for further biochemical analysis, and a small portion of each tissue and organ was fixed in 4% […] solution for histopathological examination. Bar graphs were generated applying Prism 8.0 (GraphPad Software Inc., San Diego, CA, USA), and HE staining samples were captured using the Leica image system.

[2] = as above; type: in vivo; details: ICR, mouse, in vivo, iv, mice, intravenous
Procedure: as §1

With CNC1CC(=S)N2CC3CCCN4CCCC(C34)C2C1 [MASM, (6aS, 10S, 11aR, 11bR, 11cS)-10-methylaminododecahydro-3a, 7a-diaza-benzo (de) anthracene-8-thione] the “viscera indices (visceral weight to body weight) of heart, liver, spleen, lung, kidney” value ([1]; day 14, vs control group, all dosages) was “no significant alterations; also recorded: remained unchanged”, the “heart histopathology (HE staining)” value ([1]; high (240 mg/kg) and medium-high (144 mg/kg) dose groups) was “noticeable increase in myocardial fiber density” and the “spleen histopathology (HE staining)” value ([1]; high and medium-high dose groups vs control) was “slight increase in the count of splenic sinusoids and lymph nodes”. The “liver histopathology (HE staining)” value ([1]; high and medium-high dose groups, accompanied by portal area bleeding) was “noteworthy escalation in the number of hepatocytes”, the “kidney histopathology (HE staining)” value ([1]; high-dose group (240 mg/kg)) was “proliferation and dense arrangement, accompanied by evident bleeding” and the “lung histopathology (HE staining), alveolar cavity” value ([1]; high-dose group (240 mg/kg)) was “widened, accompanied by hemorrhaging”. For the same molecule, the “lung histopathology (HE staining), alveolar wall” value ([1]; medium-dose to low-dose groups) was “slight thinning”, the “kidney histopathology, renal interstitial blood vessels” value ([1]; medium-high and medium-dose groups) was “proliferation and dilation” and the “ALP activity in plasma vs control” value ([1]; mice, day 14, p > 0.05) was “no statistically significant differences”. For the same molecule, the “ALT activity in plasma vs control” value ([1]; mice, day 14, p > 0.05) was “no statistically significant differences”, the “AST activity in plasma vs control” value ([1]; mice, day 14, p > 0.05) was “no statistically significant differences” and the “albumin (ALB) level in plasma vs control” value ([1]; mice, day 14, p > 0.05) was “no statistically significant differences”. For the same molecule, the “creatinine (CREA) level in plasma vs control” value ([1]; mice, day 14, p > 0.05) was “statistically indistinguishable from those of the control group; also recorded: no statistically significant differences”, the “total protein (TP) level in plasma vs control” value ([1]; mice, day 14, p > 0.05) was “no statistically significant differences” and the “urea (UREA) level in plasma vs control” value ([1]; mice, day 14, p > 0.05) was “statistically indistinguishable from those of the control group; also recorded: no statistically significant differences”. For the same molecule, the symptoms upon death ([1]; mice, intravenous) was “convulsions, increased salivary secretion, urination, and defecation”, the “overall histopathological changes of primary organs” value ([1]; particularly low (31.1 mg/kg), medium-low (51.84 mg/kg), medium (86.4 mg/kg) dose groups) was “no significant alterations; also recorded: no substantial pathological alterations; also recorded: did not reveal any significant pathological changes” and the LD50 at 14 day ([2]; 14-day observation, read-out: LD50) was 94.2 mg/kg. It also gave an LD50 at 14 day ([2]; read-out: LD50, 95% confidence interval) of 70.8 to 129 mg/kg.
